Results as given in PubChem BioAssay AID248 (DTP/NCI, 2004).
Where “and” joins values, the source holds several entries; their conditions need not be identical. Equal values may be shown once. Toxic doses and inconclusive results are not listed.

System: L1210 leukemia ip in BDF1 mice, survival T/C
Experiment: NCI In Vivo Anticancer Drug Screen. Data for tumor model L1210 Leukemia (intraperitoneal) in B6D2F1 (BDF1) mice
Conditions: endpoint: mean survival time, higher = longer survival
Summary of the method: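 Survival endpoint. Drug-treated group vs vehicle group, expressed as T divided by C. Tumor passaged by transplantation.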

[1] = dose: 100.0 mg/kg/injection, schedule: Q01DX001 (ip), vehicle: Klucel (hydroxypropylcellulose) (HPC)
[2] = dose: 200.0 mg/kg/injection, schedule: Q01DX001 (ip), vehicle: Klucel (hydroxypropylcellulose) (HPC)
[3] = dose: 400.0 mg/kg/injection, schedule: Q01DX001 (ip), vehicle: Klucel (hydroxypropylcellulose) (HPC)
[4] = dose: 75.0 mg/kg/injection, schedule: Q01DX009 (ip), vehicle: Klucel (hydroxypropylcellulose) (HPC)
[5] = dose: 150.0 mg/kg/injection, schedule: Q01DX009 (ip), vehicle: Klucel (hydroxypropylcellulose) (HPC)
[6] = dose: 100.0 mg/kg/injection, schedule: Q04DX003 (ip), vehicle: Klucel (hydroxypropylcellulose) (HPC)
[7] = dose: 200.0 mg/kg/injection, schedule: Q04DX003 (ip), vehicle: Klucel (hydroxypropylcellulose) (HPC)
[8] = dose: 400.0 mg/kg/injection, schedule: Q04DX003 (ip), vehicle: Klucel (hydroxypropylcellulose) (HPC)
[9] = dose: 100.0 mg/kg/injection, schedule: Q04DX003 (ip), vehicle: saline
[10] = dose: 200.0 mg/kg/injection, schedule: Q04DX003 (ip), vehicle: saline
[11] = dose: 400.0 mg/kg/injection, schedule: Q04DX003 (ip), vehicle: saline
[12] = dose: 50.0 mg/kg/injection, schedule: Q01DX001 (ip), vehicle: carboxymethylcellulose (CMC)
[13] = dose: 100.0 mg/kg/injection, schedule: Q01DX001 (ip), vehicle: carboxymethylcellulose (CMC)
[14] = dose: 200.0 mg/kg/injection, schedule: Q01DX001 (ip), vehicle: carboxymethylcellulose (CMC)
[15] = dose: 400.0 mg/kg/injection, schedule: Q01DX001 (ip), vehicle: carboxymethylcellulose (CMC)
[16] = dose: 100.0 mg/kg/injection, schedule: Q01DX009 (ip), vehicle: Klucel (hydroxypropylcellulose) (HPC)
[17] = dose: 200.0 mg/kg/injection, schedule: Q01DX009 (ip), vehicle: Klucel (hydroxypropylcellulose) (HPC)
[18] = dose: 400.0 mg/kg/injection, schedule: Q01DX009 (ip), vehicle: Klucel (hydroxypropylcellulose) (HPC)
[19] = dose: 100.0 mg/kg/injection, schedule: Q01DX001 (ip), vehicle: saline with Tween-80
[20] = dose: 100.0 mg/kg/injection, schedule: Q04DX003 (ip), vehicle: saline with Tween-80
[21] = dose: 200.0 mg/kg/injection, schedule: Q04DX003 (ip), vehicle: saline with Tween-80
[22] = dose: 400.0 mg/kg/injection, schedule: Q04DX003 (ip), vehicle: saline with Tween-80
[23] = dose: 100.0 mg/kg/injection, schedule: Q01DX001 (ip), vehicle: saline
[24] = dose: 200.0 mg/kg/injection, schedule: Q01DX001 (ip), vehicle: saline
[25] = dose: 400.0 mg/kg/injection, schedule: Q01DX001 (ip), vehicle: saline

In the case of `Oc1ccc(Br)cc1C=NC1CCCCC1`, the T/C (dose: 100.0 mg/kg/injection, schedule: Q04DX002 (ip), vehicle: other) is reported as 90 % of control, the T/C (dose: 200.0 mg/kg/injection, schedule: Q04DX002 (ip), vehicle: other) is reported as 96 % of control and the T/C (dose: 400.0 mg/kg/injection, schedule: Q04DX002 (ip), vehicle: other) is reported as 90 % of control.
`Cc1ccc(O)c(-c2ccccc2)c1` was tested, and the T/C [1] was 100 % of control, the T/C [2] was 100 % of control and the T/C [3] was 103 % of control.
`N#Cc1cccn1O` was tested, and the T/C (dose: 37.5 mg/kg/injection, schedule: Q01DX009 (ip), vehicle: Klucel (hydroxypropylcellulose) (HPC)) was 104 % of control, the T/C [4] was 100 % of control and the T/C [5] was 108 % of control.
With `O=C1c2ccccc2-c2cccc3ccc(-c4ccccc4)c1c23` the T/C [4] was 105 % of control, the T/C [6] was 96 % of control and the T/C [5] was 97 % of control. The T/C [7] was 96 % of control, the T/C (dose: 300.0 mg/kg/injection, schedule: Q01DX009 (ip), vehicle: Klucel (hydroxypropylcellulose) (HPC)) was 101 % of control and the T/C [8] was 100 % of control.
For `Cc1ccc(S(=O)(=O)NC(=O)NC(C)C(=O)O)cc1` (stereo not drawn), the T/C [9] was 102 % of control, the T/C [10] was 97 % of control and the T/C [11] was 96 % of control.
For `COc1ccc2c(c1)CCC1C2=CCC2C1C(=O)CCC2(OC)OC` (stereo not drawn), the T/C (dose: 50.0 mg/kg/injection, schedule: Q01DX001 (ip), vehicle: Klucel (hydroxypropylcellulose) (HPC)) was 98 % of control, the T/C [1] was 101 % of control and the T/C [2] was 96 % of control.
`O=[P+](O)C(O)c1ccccc1` (stereo not drawn) was tested, and the T/C (dose: 100.0 mg/kg/injection, schedule: Q01DX009 (ip), vehicle: saline) was 95 % of control, the T/C (dose: 200.0 mg/kg/injection, schedule: Q01DX009 (ip), vehicle: saline) was 95 % of control and the T/C (dose: 400.0 mg/kg/injection, schedule: Q01DX009 (ip), vehicle: saline) was 95 % of control.
For `OCC1(CO)CCC=CO1`, the T/C [12] was 113 % of control, the T/C [13] was 100 % of control and the T/C [14] was 100 % of control. The T/C [15] was 97 % of control.
With `CSc1ccccc1NC(=O)c1ccccc1` the T/C (dose: 100.0 mg/kg/injection, schedule: Q04DX002 (ip), vehicle: Klucel (hydroxypropylcellulose) (HPC)) was 93 % of control, the T/C (dose: 200.0 mg/kg/injection, schedule: Q04DX002 (ip), vehicle: Klucel (hydroxypropylcellulose) (HPC)) was 86 % of control and the T/C (dose: 400.0 mg/kg/injection, schedule: Q04DX002 (ip), vehicle: Klucel (hydroxypropylcellulose) (HPC)) was 96 % of control.
`COc1ccccc1/C(=C/c1ccc([N+](=O)[O-])cc1)C(=O)Nc1ccc(S(=O)(=O)F)cc1` was tested, and the T/C [16] was 103 % of control, the T/C [17] was 92 % of control and the T/C [18] was 100 % of control.
For `CN(CCc1ccccc1)/N=N/c1nc[nH]c1C(N)=O`, the T/C [19] was 96 % of control, the T/C [16] was 102 % of control and the T/C [20] was 110 % of control. For the same compound, the T/C (dose: 118.0 mg/kg/injection, schedule: Q04DX003 (ip), vehicle: saline with Tween-80) was 101 % of control, the T/C (dose: 150.0 mg/kg/injection, schedule: Q01DX009 (ip), vehicle: saline with Tween-80) was 155 % of control and the T/C (dose: 177.0 mg/kg/injection, schedule: Q04DX003 (ip), vehicle: saline with Tween-80) was 115 % of control. The T/C (dose: 200.0 mg/kg/injection, schedule: Q01DX001 (ip), vehicle: saline with Tween-80) was 104 % of control, the T/C [17] was 103 % of control and the T/C [21] was 112 % of control. The T/C (dose: 300.0 mg/kg/injection, schedule: Q01DX009 (ip), vehicle: saline with Tween-80) was 163 % of control, the T/C (dose: 400.0 mg/kg/injection, schedule: Q01DX001 (ip), vehicle: saline with Tween-80) was 118 % of control and the T/C [18] was 113 % of control. For the same compound, the T/C [22] was 150 % of control and the T/C (dose: 600.0 mg/kg/injection, schedule: Q04DX003 (ip), vehicle: saline with Tween-80) was 179 % of control.
In the case of `CC(=O)Oc1ccc(-c2ccc(Cl)cc2)cc1`, the T/C [13] is reported as 103 % of control, the T/C [14] is reported as 109 % of control and the T/C [15] is reported as 97 % of control.
In the case of `O=c1[nH][nH]c(-c2ccccc2)c1Cc1ccccc1`, the T/C [9] is reported as 95 % of control, the T/C [10] is reported as 96 % of control and the T/C [11] is reported as 96 % of control.
With `O=[N+]([O-])c1cncc([N+](=O)[O-])c1NCc1ccccc1` the T/C [20] was 103 % of control, the T/C [21] was 93 % of control and the T/C [22] was 104 % of control.
`COc1cc(NC(C)=O)c2ncccc2c1NC(C)=O` was tested, and the T/C [12] was 96 % of control, the T/C [13] was 102 % of control and the T/C [14] was 96 % of control. The T/C [15] was 94 % of control.
For `CCOc1ccc(Br)cc1C1N(Cc2ccccc2OC)CCCN1Cc1ccccc1OC`, the T/C [13] was 100 % of control, the T/C [14] was 92 % of control and the T/C [15] was 94 % of control.
In the case of `Cc1cc(C)c(C)c(C(C)O)c1C` (stereo not drawn), the T/C [20] is reported as 96 % of control and the T/C [21] is reported as 94 % of control.
For `COc1ccc(C(O)(CNCc2ccccc2)c2ccccc2)cc1` (stereo not drawn), the T/C [19] was 97 % of control.
With `CC(=O)OC1CCC2(C)C(=CCC3C2CCC2(C)C(c4cccc(=O)o4)CCC32)C1` (stereo not drawn) the T/C (dose: 100.0 mg/kg/injection, schedule: Q01DX001 (sc), vehicle: steriod suspending solution) was 100 % of control, the T/C (dose: 200.0 mg/kg/injection, schedule: Q01DX001 (sc), vehicle: steriod suspending solution) was 102 % of control and the T/C (dose: 400.0 mg/kg/injection, schedule: Q01DX001 (sc), vehicle: steriod suspending solution) was 93 % of control.
With `CC1(C)CCCC2(C)C3=C(CC4(C(C)(C)O)OC4C3=O)C(=O)CC12` (stereo not drawn) the T/C [23] was 102 % of control, the T/C [24] was 105 % of control and the T/C [25] was 109 % of control.
For `CCOc1ccccc1NC(=O)Oc1cc(C)c(Cl)c(C)c1`, the T/C [16] was 104 % of control, the T/C [17] was 98 % of control and the T/C [18] was 100 % of control.
With `Cc1cc(=O)[nH]c(NCCCCCC(=O)O)n1` the T/C (dose: 25.0 mg/kg/injection, schedule: Q04DX003 (ip), vehicle: saline) was 104 % of control, the T/C (dose: 50.0 mg/kg/injection, schedule: Q04DX003 (ip), vehicle: saline) was 104 % of control and the T/C [9] was 101 % of control.
In the case of `O=COCC1CCC(COC=O)CC1` (stereo not drawn), the T/C (dose: 222.0 mg/kg/injection, schedule: Q01DX Z (ip), vehicle: methylcellulose (MC)) is reported as 94 % of control, the T/C (dose: 333.0 mg/kg/injection, schedule: Q01DX Z (ip), vehicle: methylcellulose (MC)) is reported as 94 % of control and the T/C (dose: 500.0 mg/kg/injection, schedule: Q01DX Z (ip), vehicle: methylcellulose (MC)) is reported as 105 % of control.
For `O=c1c2ccccc2n2nnc3cccc1c32`, the T/C [1] was 97 % of control and 88 % of control, the T/C [6] was 91 % of control and the T/C [2] was 87 % of control. For the same compound, the T/C [7] was 95 % of control and the T/C [3] was 92 % of control.
With `Cc1c2ccnc(-c3ccc(F)cc3)c2cc2c1[nH]c1ccccc12` the T/C (dose: 16.0 mg/kg/injection, schedule: Q01DX005 (ip), vehicle: saline) was 100 % of control, the T/C (dose: 32.0 mg/kg/injection, schedule: Q01DX005 (ip), vehicle: saline) was 100 % of control and the T/C (dose: 64.0 mg/kg/injection, schedule: Q01DX005 (ip), vehicle: saline) was 105 % of control. The T/C (dose: 128.0 mg/kg/injection, schedule: Q01DX005 (ip), vehicle: saline) was 103 % of control.
In the case of `CCCCCCCCCCCCCCC(=O)O`, the T/C [1] is reported as 108 % of control, the T/C [2] is reported as 93 % of control and the T/C [3] is reported as 93 % of control.
In the case of `COC(=O)c1cc(-c2ccc(Cl)cc2)nc2c(C)cc(C)cc12`, the T/C [13] is reported as 92 % of control, the T/C [14] is reported as 101 % of control and the T/C [15] is reported as 89 % of control.
In the case of `C=CCC1C(=O)CC(C)(C)CC1=O`, the T/C [20] is reported as 103 % of control, the T/C [21] is reported as 103 % of control and the T/C [22] is reported as 111 % of control.
In the case of `COc1ccc(Br)cc1`, the T/C (dose: 100.0 mg/kg/injection, schedule: Q01DX009 (ip), vehicle: saline with Tween-80) is reported as 96 % of control, the T/C [6] is reported as 100 % of control and the T/C (dose: 200.0 mg/kg/injection, schedule: Q01DX009 (ip), vehicle: saline with Tween-80) is reported as 89 % of control. The T/C [7] was 100 % of control and the T/C [8] was 103 % of control.
For `CC(NCl)c1ccccc1` (stereo not drawn), the T/C [23] was 95 % of control, the T/C [24] was 100 % of control and the T/C [25] was 100 % of control.
